Measured values from patent US5501976A, “Methods and compositions for the control of the flesh fly” (The University of Florida, priority 1995, dated 1996).
Values joined by “and” are separate entries in the source; they are usually repeats but may differ in a detail not shown here. Identical values can stand only once. Like-named read-outs stand apart in the source and are kept apart here. Where no end group is shown, it is not given here.

Key:
[1] = test system: trypsin biosynthesis in the midgut of female Neobellieria bullata; test: Effect of injected peptide on trypsin biosynthesis in the gut ([3H]DFP assay); format: in vivo
[2] = test system: vitellogenin biosynthesis; test: Vitellogenin in hemolymph of injected females (SDS-PAGE); format: in vivo, Neobellieria
Experimental: Electrophoresis and fluorography. ^3 H!DIP-trypsin-like derivatives of 0.04 gut equivalent and 20 μl sample buffer were run by electrophoresis on 12.5% polyacrylamide gel for 1 hour at 20 mA and for 3 hours at 30 mA (Biorad protean 32 CM) (Laemmli, 1970; Borovsky and Schlein, 1988). Gels were stained for 20 minutes with Coomassie Brilliant Blue R250 and destained overnight with methanol/H2 O/acetic acid (40/50/10), and washed 2 times for 30 minutes in 100 ml dimethylsulfoxide (DMSO). Gels were then incubated for 2 h in 200 ml DMSO containing 44 g 2,5-diphenyloxazole (PPO) (Janssen Chimica, Belgium), rinsed with distilled water for 1 hour, dried for 2 hours in a Biorad slab gel dryer at 80° C. and exposed to a Hyperfilm-MP (Amersham) for 2 days at -70° C. Vitellogenin was separated on a 5-15% SDS gradient gel (Huybrechts and De Loof 1977).
Four-day-old females were injected with synthetic Neb-TMOF at final concentration of 10^-9 M. Twenty-four hours later, hemolymph was collected and subjected to PAGE. […] The three yolk polypeptides of vitellogenin were affected (FIG. 7). The decrease in vitellogenin in the hemolymph is probably due to the inhibition of trypsin biosynthesis and decrease in protein digestion in the gut. The Neb-TMOF can also affect the fat body, which is the major site of yolk polypeptide biosynthesis in Neobellieria.

[3] = test system: ecdysone biosynthesis by ring glands; test: In vitro ecdysone biosynthesis by larval ring glands; format: cell-based, Calliphora and Neobellieria
ecdysteroid titer = test: In vivo ecdysteroid titer in larvae; settings: ten picomole per larva, within 18 hours
trypsin-like enzymes = test: Gut supernatant incubated with Neb-TMOF: conversion of [3H]DFP to [3H]DIP-trypsin derivatives; format: biochemical, Neobellieria; settings: gut supernatant incubated 18 hours at 4° C. with Neb-TMOF (FIG. 6)

CSCC[C@H](NC(=O)[C@H](Cc1ccccc1)NC(=O)CNC(=O)CNC(=O)[C@@H](N)Cc1ccc(O)cc1)C(=O)O [methionine-enkephalin, H-YGGFM-OH, reference compound]
effect on trypsin-like activity ([1]; injected with 10^-7 M, control group): without an effect

NPTNLH [Neb-TMOF, NH2 -Asn-Pro-Thr-Asn-Leu-His-COOH]
vitellogenin level in hemolymph compared with non-injected controls ([2]; 10^-9 M injected, 24 hours later, PAGE): low level of vitellogenin
egg yolk synthesis after injection ([2]; injection of the hormone): inhibited egg yolk synthesis
inhibition of trypsin biosynthesis ([1]; 10^-8 M, injected 4-day-old females): 35%
reduction in trypsin-like enzymes as compared with controls ([1]; 10^-9 M injected, liver meal, guts removed 6 h later (FIG. 6)): 51%
inhibition of trypsin biosynthesis ([1]; 10^-9 M, injected females): 60% and 50%
inhibition of trypsin biosynthesis ([1]; 10^-11 M): No inhibition
inhibition of trypsin biosynthesis ([1]; column purification step 1, 1.25 ovary equivalents, P<0.05): 44%
inhibition of trypsin biosynthesis ([1]; column purification step 2, 3.7 ovary equivalents, P<0.05): 38%
inhibition of trypsin biosynthesis ([1]; column purification step 3, 10 ovary equivalents, P<0.05): 43%
inhibition of trypsin biosynthesis ([1]; column purification step 4, 10 ovary equivalents, P<0.05): 44%
inhibition of trypsin biosynthesis ([1]; column purification step 5, 38.5 ovary equivalents, P<0.05): 20%
inhibition of trypsin biosynthesis in the gut, significance (FIG. 5) ([1]; in vivo, 10^-8 M and 10^-9 M, P<0.05): Significant inhibition
effective dose of 50% inhibition (ED50) of trypsin biosynthesis ([1]; physiological concentrations): 10^-9 M
activity in Neobellieria relative to mosquito TMOF ([1]; versus mosquito TMOF): six fold more active
PTIH effect, onset and reversibility [3]: immediate and reversible
ecdysone biosynthesis inhibited ([3]; 10^-7 M): More than 98%
EC50 ([3]; ring glands of Neobellieria and Calliphora, read-out: EC50 of the biosynthesis of ecdysone by ring glands): 5 nM
EC50 ([3]; ring glands of larvae of Calliphora and Neobellieria, read-out: EC50 of in vitro ecdysone biosynthesis by ring glands): 5 nM
reduction of ecdysteroid titer in vivo (ecdysteroid titer): up to a factor of four
reduction in [3H]DIP-trypsin derivatives compared with controls (trypsin-like enzymes): No reduction
